# From patent US9321760B2 (Merck Patent GmbH, priority 2011, dated 2016)
# Target: P70S6K (T412E mutant) (Homo sapiens (Human), UniProt P23443, T412E)
# Test: P70S6K enzyme assay
# Assay type: biochemical
# Conditions: 3 nM P70S6K T412E mutant, 24 μM ATP, 1 μM FITC-AHA-AKRRRLSSLRA-OH substrate peptide, 90 min at 25° C.
# Method in brief: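 P70S6K T412E mutant (3 nM) with 24 μM ATP and 1 μM FITC-labelled S6-derived peptide in Hepes pH 7.5, MgCl2, DTT, Brij buffer; 90 min at 25° C, stopped with EDTA. Phosphorylated product and substrate peptides separated by microfluidic mobility shift; IC50 values derived.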
# Sequence of P70S6K (T412E mutant) (P23443 whole entry T412E): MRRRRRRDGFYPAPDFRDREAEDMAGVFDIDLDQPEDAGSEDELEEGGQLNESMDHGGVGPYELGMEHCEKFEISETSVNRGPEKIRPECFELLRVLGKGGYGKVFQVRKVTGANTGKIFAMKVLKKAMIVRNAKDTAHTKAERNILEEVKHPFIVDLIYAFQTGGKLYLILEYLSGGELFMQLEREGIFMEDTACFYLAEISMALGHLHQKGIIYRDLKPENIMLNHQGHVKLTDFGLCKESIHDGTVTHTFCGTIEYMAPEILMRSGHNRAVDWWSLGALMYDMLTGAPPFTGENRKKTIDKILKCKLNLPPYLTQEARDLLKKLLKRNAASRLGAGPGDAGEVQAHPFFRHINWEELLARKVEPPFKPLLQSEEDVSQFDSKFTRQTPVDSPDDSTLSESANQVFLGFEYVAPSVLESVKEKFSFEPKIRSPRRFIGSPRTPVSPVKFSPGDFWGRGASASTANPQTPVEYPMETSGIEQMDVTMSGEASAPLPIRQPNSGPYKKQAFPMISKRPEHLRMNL
row,Structure (SMILES),IC50 [nM]
1,"Nc1ncnc(N2CCN(C(CN3CCC3)c3cccc(F)c3)CC2)c1-c1ccc(F)cc1 (stereo not shown) [Example 90, 6-{4-[2-Azetidin-1-yl-1-(3-fluoro-phenyl)-ethyl]-piperazin-1-yl}-5-(4-fluoro-phenyl)-pyrimidin-4-ylamine]",600
2,"N#CC(c1ccc(F)c(C(F)(F)F)c1)N1CCN(c2ncnc(N)c2-c2ccc(F)cc2)CC1 (stereo not shown) [Example 154, {4-[6-Amino-5-(4-fluoro-phenyl)-pyrimidin-4-yl]-piperazin-1-yl}-(4-fluoro-3-trifluoromethyl-phenyl)-acetonitrile]",> 1000
3,"Cn1ccnc1C(c1ccccc1)N1CCN(c2ncnc(N)c2Br)CC1 (stereo not shown) [Example 29, 5-Bromo-6-{4-[(1-methyl-1H-imidazol-2-yl)-phenyl-methyl]-piperazin-1-yl}-pyrimidin-4-ylamine]",> 1000
4,"Nc1ncnc(N2CCN(C(CN3CCC3)c3ccc(Cl)c(F)c3)CC2)c1-c1cn[nH]c1 (stereo not shown) [Example 121, 6-{4-[2-Azetidin-1-yl-1-(4-chloro-3-fluoro-phenyl)-ethyl]-piperazin-1-yl}-5-(1H-pyrazol-4-yl)-pyrimidin-4-ylamine]",900
5,"Nc1ncnc(N2CCC(N)(CNC(=O)c3ccc(F)cc3F)C2)c1-c1ccc(N2CCNCC2)nc1 (stereo not shown) [Example 206, N-{3-Amino-1-[6-amino-5-(6-piperazin-1-yl-pyridin-3-yl)-pyrimidin-4-yl]-pyrrolidin-3-ylmethyl}-2,4-difluoro-benzamide]",1000
6,"Nc1ncnc(N2CC[C@](N)(CNC(=O)c3ccc(F)cc3F)C2)c1-c1ccc(F)cc1 (single isomer, unassigned) [Example 249]",5.9
7,"C[C@H](NC(=O)C1(N)CCN(c2ncnc(N)c2C(N)=O)CC1)c1ccc(Cl)cc1 [Example 244, 4-Amino-6-{4-amino-4-[(S)-1-(4-chloro-phenyl)-ethylcarbamoyl]-piperidin-1-yl}-pyrimidine-5-carboxylic acid amide]",20000
8,"NCC(c1cc(C(F)(F)F)ccc1F)N1CCN(c2ncnc(N)c2-c2ccc(F)cc2)CC1 (stereo not shown) [Example 192, 6-{4-[2-Amino-1-(2-fluoro-5-trifluoromethyl-phenyl)-ethyl]-piperazin-1-yl}-5-(4-fluoro-phenyl)-pyrimidin-4-ylamine]",13
9,"Nc1ncnc(N2CCN(C(CN3CCC3)c3ccc4c(c3)CCCC4)CC2)c1-c1ccc(N2CCNCC2)nc1 (stereo not shown) [Example 115, 6-{4-[2-Azetidin-1-yl-1-(5,6,7,8-tetrahydro-naphthalen-2-yl)-ethyl]-piperazin-1-yl}-5-(6-piperazin-1-yl-pyridin-3-yl)-pyrimidin-4-ylamine]",> 100000
10,"NCC(c1cccc(F)c1)N1CCN(c2ncnc(N)c2-c2ccc(F)cc2)CC1 (stereo not shown) [Example 169, 6-{4-[2-Amino-1-(3-fluoro-phenyl)-ethyl]-piperazin-1-yl}-5-(4-fluoro-phenyl)-pyrimidin-4-ylamine]",4.1
11,"COC[C@H](NC(=O)C1(N)CCN(c2ncnc(N)c2C#N)CC1)c1ccc(Cl)cc1 [Example 241, 4-Amino-1-(6-amino-5-cyano-pyrimidin-4-yl)-piperidine-4-carboxylic acid [(R)-1-(4-chloro-phenyl)-2-methoxy-ethyl]-amide]",210
12,"Nc1ncnc(N2CCN(C(CN3CCCCC3)c3cccc(F)c3)CC2)c1-c1ccc(F)cc1 (stereo not shown) [Example 64, 5-(4-Fluorophenyl)-6{4-[1-(3-fluoro-phenyl)-2-piperidin-1-yl-ethyl]-piperazin-1-yl}-pyrimidin-4-ylamine]",50
13,"CN(C)C[C@@H](c1ccc(C(F)(F)F)cc1)N1CCN(c2ncnc(N)c2-c2ccc(F)cc2)CC1 [Example 17, (R)-6-(4-(2-(dimethylamino)-1-(4-(trifluoromethyl)phenyl)ethyl)piperazin-1-yl)-5-(4-fluorophenyl)pyrimidin-4-amine]",1.7
14,"NCC(c1ccc(C(F)(F)F)cc1)N1CCN(c2ncnc(N)c2-c2ccc(F)cc2)CC1 (stereo not shown) [Example 2, 6-{4-[2-Amino-1-(4-trifluoromethyl-phenyl)-ethyl]-piperazin-1-yl}-5-(4-fluoro-phenyl)-pyrimidin-4-ylamine]",2.2
15,"C[C@H](NC(=O)C1(N)CCN(c2ncnc(N)c2-c2cn[nH]c2)CC1)c1ccc(Cl)cc1 [Example 224, 4-Amino-1-[6-amino-5-(1H-pyrazol-4-yl)-pyrimidin-4-yl]-piperidine-4-carboxylic acid [(S)-1-(4-chloro-phenyl)-ethyl]-amide]",87
16,"Nc1ncnc(N2CCC(N)(CNC(=O)c3ccc(F)cc3F)CC2)c1Br [Example 207, N-[4-Amino-1-(6-amino-5-bromo-pyrimidin-4-yl)-piperidin-4-ylmethyl]-2,4-difluoro-benzamide]",150
17,"CS(=O)(=O)c1ccc(C(C#N)N2CCN(c3ncnc(N)c3-c3cn[nH]c3)CC2)cc1 (stereo not shown) [Example 184, 2-(4-(6-amino-5-(1H-pyrazol-4-yl)pyrimidin-4-yl)piperazin-1-yl)-2-(4-(methylsulfonyl)phenyl)acetonitrile]",> 1000

row,Structure (SMILES),IC50 [nM]
1,"NCC(c1ccc(Cl)nc1)N1CCN(c2ncnc(N)c2-c2ccc(F)cc2)CC1 (stereo not shown) [Example 174, 6-{4-[2-Amino-1-(6-chloro-pyridin-3-yl)-ethyl]-piperazin-1-yl}-5-(4-fluoro-phenyl)-pyrimidin-4-ylamine]",8.5
2,"NCC(c1ccc(C(F)(F)F)cc1)N1CCN(c2ncnc(N)c2Br)CC1 (stereo not shown) [Example 1, 6-{4-[2-Amino-1-(4-trifluoromethyl-phenyl)-ethyl]-piperazin-1-yl}-5-bromo-pyrimidin-4-ylamine]",5.8
3,"Nc1ncnc(N2CCN(C(CN3CCCC3)c3ccc(C(F)(F)F)cc3)CC2)c1-c1ccc(F)cc1 (stereo not shown) [Example 10, 5-(4-fluorophenyl)-6-(4-(2-(pyrrolidin-1-yl)-1-(4-(trifluoromethyl)-phenyl)-ethyl)-piperazin-1-yl)-pyrimidin-4-amine]",31
4,"N#Cc1cccc([C@@H](CN2CCC2)N2CCN(c3ncnc(N)c3-c3cn[nH]c3)CC2)c1 [Example 97, 3-((S)-1-{4-[6-Amino-5-(1H-pyrazol-4-yl)-pyrimidin-4-yl]-piperazin-1-yl}-2-azetidin-1-yl-ethyl)-benzonitrile]",3700
5,"Nc1cc(N2CCN(C(CN3CCCC3)c3cccc(C(F)(F)F)c3)CC2)ncn1 (stereo not shown) [Example 73, 6-{4-[1-(3-trifluoromethyl-phenyl)-2-pyrrolidin-1-yl-ethyl]-piperazin-1-yl}-pyrimidin-4-ylamine]",> 1000
6,"Nc1ncnc(N2CCN(C(CN3CCCC3)c3cccc(C(F)(F)F)c3)CC2)c1-c1ccc(F)cc1 (stereo not shown) [Example 66, 5-(4-Fluorophenyl)-6{4-[1-(3-trifluoromethyl-phenyl)-2-pyrrolidin-1-yl-ethyl]-piperazin-1-yl}-pyrimidin-4-ylamine]",82
7,"Nc1ncnc(N2CCN([C@H](CN3CCC3)c3ccc4c(c3)OCCO4)CC2)c1-c1cn[nH]c1 [Example 108, 6-{4-[(S)-2-Azetidin-1-yl-1-(2,3-dihydro-benzo[1,4]dioxin-6-yl)-ethyl]-piperazin-1-yl}-5-(1H-pyrazol-4-yl)-pyrimidin-4-ylamine]",3700
8,"Nc1ncnc(N2CCN(C(CN3CCC3)c3ccc(F)cc3Cl)CC2)c1-c1cn[nH]c1 (stereo not shown) [Example 137, 6-{4-[2-Azetidin-1-yl-1-(2-chloro-4-fluoro-phenyl)-ethyl]-piperazin-1-yl}-5-(1H-pyrazol-4-yl)-pyrimidin-4-ylamine]",3100
9,"Nc1ncnc(N2CCC(N)(CNC(=O)c3ccc(F)cc3F)C2)c1-c1ccc(Oc2ccccc2)cc1 (stereo not shown) [Example 200, N-{3-Amino-1-[6-amino-5-(4-phenoxy-phenyl)-pyrimidin-4-yl]-pyrrolidin-3-ylmethyl}-2,4-difluoro-benzamide]",120
10,"NCC(c1cccc(C(F)(F)F)c1)N1CCN(c2ncnc(N)c2-c2ccc(F)cc2)CC1 (stereo not shown) [Example 153, 6-{4-[2-Amino-1-(3-trifluoromethyl-phenyl)-ethyl]-piperazin-1-yl}-5-(4-fluoro-phenyl)-pyrimidin-4-ylamine]",11
11,"Nc1ncnc(N2CCC(N)(C(=O)N[C@@H](CCO)c3ccc(Cl)cc3)CC2)c1Cl [Example 235, 4-Amino-1-(6-amino-5-chloro-pyrimidin-4-yl)-piperidine-4-carboxylic acid [(S)-1-(4-chloro-phenyl)-3-hydroxy-propyl]-amide]",250
12,"NCC(c1cccnc1)N1CCN(c2ncnc(N)c2-c2ccc(F)cc2)CC1 (stereo not shown) [Example 193, 6-[4-(2-Amino-1-pyridin-3-yl-ethyl)-piperazin-1-yl]-5-(4-fluoro-phenyl)-pyrimidin-4-ylamine]",31
13,"Nc1ncnc(N2CCN(C(CN3CCCCC3)c3ccc(F)cc3)CC2)c1-c1ccc(F)cc1 (stereo not shown) [Example 67, 5-(4-Fluorophenyl)-6{4-[1-(4-fluoro-phenyl)-2-piperidin-1-yl-ethyl]-piperazin-1-yl}-pyrimidin-4-ylamine]",24
14,"Nc1ncnc(N2CCN(C(CN3CCC3)c3ccc4c(c3)CCCC4)CC2)c1-c1cn[nH]c1 (stereo not shown) [Example 122, 6-{4-[2-Azetidin-1-yl-1-(5,6,7,8-tetrahydro-naphthalen-2-yl)-ethyl]-piperazin-1-yl}-5-(1H-pyrazol-4-yl)-pyrimidin-4-ylamine]",950
15,"CS(=O)(=O)c1ccc(C(CN2CCC2)N2CCN(c3ncnc(N)c3-c3ccc(F)cc3)CC2)cc1 (stereo not shown) [Example 128, 6-{4-[2-Azetidin-1-yl-1-(4-methanesulfonyl-phenyl)-ethyl]-piperazin-1-yl}-5-(4-fluoro-phenyl)-pyrimidin-4-ylamine]",280
16,"Nc1ncnc(N2CCC(C(c3ccc(F)cc3)N3CCCC3)CC2)c1-c1ccc(F)cc1 (stereo not shown) [Example 148, 5-(4-fluoropheny)-6-(4-((4-fluorophenyl)(pyrrolidin-1-yl)methyl)piperidin-1-yl)pyrimidin-4-amine]",250
17,"C[C@H](c1ccccc1)[C@H](CN)N1CCN(c2ncnc(N)c2-c2ccc(F)cc2)CC1 [Example 171, 6-[4-((1R,2R)-1-Aminomethyl-2-phenyl-propyl)-piperazin-1-yl]-5-(4-fluoro-phenyl)-pyrimidin-4-ylamine]",73
